In patent US20010053796A1, “Delta-aminolevulinic acid for prevention and treatment of infection microorganisms and parasite” (priority 2000, published 2001):

Experiments:
Streptococcus sp. [1] = assay: Prevention effect for artificial infection (abdominal injection of bacteria); type: in vivo, Sebastes schlegeli; conditions: for Mortality during Cultivation: dead of 20 fish
Experimental: (§1) The water temperature was maintained at 20° C. (±2° C. ) throughout the experiment. […]
Bastardhalibut and Sebastes schlegeli were infected by Streptococcus sp. by abdominal injection with the same method of fish breeding, δ-aminolevulinic acid treatment and artificial infection carried out in Experiment 1 and 2. Each experimental fish was moved to fish tanks for monitoring and monitored for mortality according to infection for 2 weeks. […] The treated group, with δ-aminolevulinic acid by tank administration method and oral administration method, has shown viability of higher than 65%.

Streptococcus sp. [2] = assay: Treatment effect of infected fry by oral administration in feed; type: in vivo, Bastardhalibut; conditions: 50 fish
Experimental: (§2) In this example, fry of Bastardhalibut and Sebastes schlegeli (mean body weight 2 g), 50 per each breeding tank, were preliminary-bred for 1 week and stabilized. […] The artificial infection methods were carried out through the digestion method. Pathogenic organisms were applied into fish tanks and introduced into seawater for an hour, wherein the concentration of organisms adjusted to 10^4 CFU/mL. Treatment conditions are as follows; after artificial infection, infected fish were moved to fish tanks and kept in the infection period for 3 days. […] The fish were bred for 2 weeks after exchanging with clean seawater and the mortality of fish according to infection was monitored. In the control groups, after each bacteria were identically infected through digestion method, mortality of Bastardhalibut and Sebastes schlegeli according to bacteria infection was identified while breeding with marketing assorted feed without δ-aminolevulinic acid. As a result of this experiment, δ-aminolevulinic acid-treated groups have shown high viability in both Bastardhalibut (Table 20˜Table 23) and Sebastes schlegeli (Table 24˜Table 27).

Staphylococcus sp. [3] = assay: as above; type: in vivo, Bastardhalibut; conditions: 50 fish
Experimental: as §2

Staphylococcus epidermis = assay: as above; type: in vivo, Bastardhalibut; conditions: 50 fish
Experimental: as §2

Pseudomonas sp. = assay: as above; type: in vivo, Bastardhalibut; conditions: 50 fish
Experimental: as §2

Edwardsiella tarda [4] = assay: as above; type: in vivo, Bastardhalibut; conditions: 50 fish
Experimental: as §2

Staphylococcus sp. [5] = assay: Prevention effect for artificial infection (abdominal injection of bacteria); type: in vivo, Bastardhalibut; conditions: for Mortality during Cultivation: dead of 20 fish
Experimental: as §1
Bastardhalibut and Sebastes schlegeli were infected by Staphylococcus sp. by abdominal injection with the same method of fish breeding δ-aminolevulinic acid treatment and artificial infection carried out in Experiment 1 and 2. Each experimental fish was moved to fish tanks for monitoring and monitored for mortality according to infection for 2 weeks.

Vibrio anguillarum [6] = assay: Treatment effect of infected fry by oral administration in feed; type: in vivo, Bastardhalibut; conditions: 50 fish
Sebastes schlegeli = assay: Breeding before Scutica artificial infection (mortality during cultivation); type: in vivo; conditions: 1˜3 weeks; for Mortality during Cultivation: dead of 20 fish
Experimental: The water temperature was maintained at 20° C. (±2° C.) throughout the experiment.

Vibrio anguillarum [7] = assay: Prevention effect for artificial infection (abdominal injection of bacteria); type: in vivo, Sebastes schlegeli; conditions: for Mortality during Cultivation: dead of 20 fish
Experimental: The water temperature was maintained at 20° C. (±2° C. ) throughout the experiment.
As the same method of above Experiment 1, fishes of both control group and experiment group were prepared and artificially infected by direct abdominal injection of Edwardsiella tarda 10^5 CFU per 1 fish. Each experimental fish was moved to fish tanks for monitoring and monitored for mortality according to infection for 2 weeks and viability after 2 weeks.
Bastardhalibut and Sebastes schlegeli were infected by Vibrio anguillarum through abdominal injection with the same method of fish breeding; δ-aminolevulinic acid treatment and artificial infection carried out in Experiment 1 and 2.

Edwardsiella tarda [8] = assay: Treatment of Edwardsiella bacteria-infected fish in a fish farm; type: in vivo, flatfish
From the text: Infected fish cultivated in the terrestrial fish tank were found in a fish farm, where flatfish (mean weight 11 g) were dying by spontaneous attack. The main source of infection was Edwardsiella tardaa. About 30˜40% of cumulative mortality per cultivating tank has shown after 5 days since the mortality started. […] On the first day, 0.1 ppm δ-aminolevulinic acid was digestion-treated in two tanks for 2 hrs and on the second and third day, 0.01 ppm δ-aminolevulinic acid was digested for 2 hrs. They were then observed, during the water was exchanged. δ-aminolevulinic acid digestion-treated tanks (about 3,000 fish) has maintained 40% cumulative mortality for 1 week after treatment, while δ-aminolevulinic acid non-treated tanks has shown 60% cumulative mortality and progressive disease was observed, more reporting 20% cumulative mortality thereafter.

[9] = feed 0.1 ppm from 4th day of infection
[10] = feed 1.0 ppm from 4th day of infection
[11] = feed 50 ppm from 4th day of infection
[12] = feed 100 ppm from 4th day of infection

NCC(=O)CCC(=O)O [δ-aminolevulinic acid]
Viability (Streptococcus sp. [1]; orally, 0.1 ppm in feed): 70% | Mortality during Cultivation (Streptococcus sp. [1]; orally, 0.1 ppm in feed): 6 | Viability (Streptococcus sp. [1]; orally, 1.0 ppm in feed): 70% | Mortality during Cultivation (Streptococcus sp. [1]; orally, 1.0 ppm in feed): 6 | Viability (Streptococcus sp. [1]; orally, 10 ppm in feed): 85% | Mortality during Cultivation (Streptococcus sp. [1]; orally, 10 ppm in feed): 3 | Viability (Streptococcus sp. [1]; orally, 100 ppm in feed): 90% | Mortality during Cultivation (Streptococcus sp. [1]; orally, 100 ppm in feed): 2 | Viability (Streptococcus sp. [1]; to fish tanks, 0.01 ppm): 60% | Mortality during Cultivation (Streptococcus sp. [1]; to fish tanks, 0.01 ppm): 8 | Viability (Streptococcus sp. [1]; to fish tanks, 0.1 ppm): 65% | Mortality during Cultivation (Streptococcus sp. [1]; to fish tanks, 0.1 ppm): 7 | Viability (Streptococcus sp. [1]; to fish tanks, 1.0 ppm): 85% | Mortality during Cultivation (Streptococcus sp. [1]; to fish tanks, 1.0 ppm): 3 | Viability (Streptococcus sp. [1]; to fish tanks, 10 ppm): 80% | Mortality during Cultivation (Streptococcus sp. [1]; to fish tanks, 10 ppm): 4 | Viability (Streptococcus sp. [2]; [9]): 36% | Viability (Streptococcus sp. [2]; [10]): 74% | Viability (Streptococcus sp. [2]; [11]): 90% | Viability (Streptococcus sp. [2]; [12]): 86% | Viability (Staphylococcus sp. [3]; [9]): 42% | Viability (Staphylococcus sp. [3]; [10]): 72% | Viability (Staphylococcus sp. [3]; [11]): 92% | Viability (Staphylococcus sp. [3]; [12]): 86% | Viability (Staphylococcus epidermis; [9]): 42% | Viability (Staphylococcus epidermis; [10]): 68% | Viability (Staphylococcus epidermis; [11]): 94% | Viability (Staphylococcus epidermis; [12]): 86% | Viability (Pseudomonas sp.; [9]): 42% | Viability (Pseudomonas sp.; [10]): 68% | Viability (Pseudomonas sp.; [11]): 88% | Viability (Pseudomonas sp.; [12]): 82% | Viability (Edwardsiella tarda [4]; [9]): 42% | Viability (Edwardsiella tarda [4]; [10]): 68% | Viability (Edwardsiella tarda [4]; [11]): 92% | Viability (Edwardsiella tarda [4]; [12]): 82% | Viability (Staphylococcus sp. [5]; orally, 0.1 ppm in feed): 55% | Mortality during Cultivation (Staphylococcus sp. [5]; orally, 0.1 ppm in feed): 9 | Viability (Staphylococcus sp. [5]; orally, 1.0 ppm in feed): 65% | Mortality during Cultivation (Staphylococcus sp. [5]; orally, 1.0 ppm in feed): 7 | Viability (Staphylococcus sp. [5]; orally, 10 ppm in feed): 95% | Mortality during Cultivation (Staphylococcus sp. [5]; orally, 10 ppm in feed): 1 | Viability (Staphylococcus sp. [5]; orally, 100 ppm in feed): 90% | Mortality during Cultivation (Staphylococcus sp. [5]; orally, 100 ppm in feed): 2 | Viability (Staphylococcus sp. [5]; to fish tanks, 0.01 ppm): 55% | Mortality during Cultivation (Staphylococcus sp. [5]; to fish tanks, 0.01 ppm): 9 | Viability (Staphylococcus sp. [5]; to fish tanks, 0.1 ppm): 75% | Mortality during Cultivation (Staphylococcus sp. [5]; to fish tanks, 0.1 ppm): 5 | Viability (Staphylococcus sp. [5]; to fish tanks, 1.0 ppm): 90% | Mortality during Cultivation (Staphylococcus sp. [5]; to fish tanks, 1.0 ppm): 2 | Viability (Staphylococcus sp. [5]; to fish tanks, 10 ppm): 95% | Mortality during Cultivation (Staphylococcus sp. [5]; to fish tanks, 10 ppm): 1 | Viability (Vibrio anguillarum [6]; [9]): 44% | Viability (Vibrio anguillarum [6]; [10]): 72% | Viability (Vibrio anguillarum [6]; [11]): 90% | Viability (Vibrio anguillarum [6]; [12]): 88% | Viability (Sebastes schlegeli; oral (100 ppm per feed 1 kg)): 100% | Mortality during Cultivation (Sebastes schlegeli; oral (100 ppm per feed 1 kg)): 0 | Viability (Sebastes schlegeli; to fish tanks (10 ppm)): 100% | Mortality during Cultivation (Sebastes schlegeli; to fish tanks (10 ppm)): 0 | Viability (Vibrio anguillarum [7]; orally, 0.1 ppm in feed): 60% | Mortality during Cultivation (Vibrio anguillarum [7]; orally, 0.1 ppm in feed): 8 | Viability (Vibrio anguillarum [7]; orally, 1.0 ppm in feed): 65% | Mortality during Cultivation (Vibrio anguillarum [7]; orally, 1.0 ppm in feed): 7 | Viability (Vibrio anguillarum [7]; orally, 10 ppm in feed): 80% | Mortality during Cultivation (Vibrio anguillarum [7]; orally, 10 ppm in feed): 4 | Viability (Vibrio anguillarum [7]; orally, 100 ppm in feed): 90% | Mortality during Cultivation (Vibrio anguillarum [7]; orally, 100 ppm in feed): 2 | Viability (Vibrio anguillarum [7]; to fish tanks, 0.01 ppm): 60% | Mortality during Cultivation (Vibrio anguillarum [7]; to fish tanks, 0.01 ppm): 8 | Viability (Vibrio anguillarum [7]; to fish tanks, 0.1 ppm): 60% | Mortality during Cultivation (Vibrio anguillarum [7]; to fish tanks, 0.1 ppm): 8 | Viability (Vibrio anguillarum [7]; to fish tanks, 1.0 ppm): 85% | Mortality during Cultivation (Vibrio anguillarum [7]; to fish tanks, 1.0 ppm): 1 | Viability (Vibrio anguillarum [7]; to fish tanks, 10 ppm): 90% | Mortality during Cultivation (Vibrio anguillarum [7]; to fish tanks, 10 ppm): 2 | Cumulative mortality (Edwardsiella tarda [8]; digestion 0.1 ppm day 1, 0.01 ppm days 2 and 3, 2 hrs, maintained for 1 week after treatment): 40% | Cumulative mortality (Edwardsiella tarda [8]; digestion-treated groups in progressive disease, end result (non-treated 80%)): about 40%
